Test results reported in US6369069B1 (Aventis Pharma Deutschland GmbH, priority 1998, dated 2002).

System: Na^+-dependent Cl^−/HCO3^− exchanger (NCBE)
Assay: Inhibition of the Na+-dependent Cl−/HCO3− exchanger (NCBE) in human endothelial cells (pHi recovery, BCECF fluorescence, FLIPR)
Type: cell-based
Settings: 10 μM
Method in brief: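 Fluorescence rise (FLIPR, 2 min, 35 °C) tracked pHi recovery in acid-loaded, BCECF-loaded ECV-304 cells after adding Na+- and HCO3−-containing buffer with 50 μM HOE 642 and graded compound doses. Inhibition was calculated against full-recovery and bicarbonate-free no-recovery controls.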

| Structure (SMILES) | Residual activity % of the NCBE at 10 μM [%] |
| --- | --- |
| COc1cccc(CN(Cc2ccc(-c3ccccc3S(=O)(=O)NC#N)cc2)C(=O)NC2CCCCC2)c1 [Example 304] | 56.0 |
| N#CNS(=O)(=O)c1ccccc1-c1ccc(CN(Cc2cccc(Cl)c2)C(=O)Nc2c(F)cccc2F)cc1 [Example 305] | 84.9 |
| CC(C)NC(=O)N(Cc1ccc(-c2ccccc2S(=O)(=O)NC#N)cc1)Cc1cccc(Cl)c1 [Example 306] | 90.2 |
| N#CNS(=O)(=O)c1ccccc1-c1ccc(CN(Cc2cccc(Cl)c2)C(=O)NCc2ccccc2)cc1 [Example 307] | 55.8 |
| N#CNS(=O)(=O)c1ccccc1-c1ccc(CN(Cc2cccc(Cl)c2)C(=O)NC2CCCCC2)cc1 [Example 308] | 32.1 |
| N#CNS(=O)(=O)c1ccccc1-c1ccc(CN(Cc2cccc(Cl)c2Cl)C(=O)Cc2cccs2)cc1 [Example 309] | 88.9 |
| N#CNS(=O)(=O)c1ccccc1-c1ccc(CN(Cc2ccc3ccccc3c2)C(=O)Cc2cccs2)cc1 [Example 310] | 47.7 |
| Cc1cccc(CN(Cc2ccc(-c3ccccc3S(=O)(=O)NC#N)cc2)C(=O)Cc2cccs2)c1 [Example 311] | 10.4 |
| Cc1ccccc1CN(Cc1ccc(-c2ccccc2S(=O)(=O)NC#N)cc1)C(=O)Cc1cccs1 [Example 312] | 12.5 |
| CC(C)=CCCC(C)=CCN(Cc1ccc(-c2ccccc2S(=O)(=O)NC#N)cc1)C(=O)Cc1cccs1 [Example 313] | 17.2 |
| N#CNS(=O)(=O)c1ccccc1-c1ccc(CN(C(=O)Cc2cccs2)C2CCc3ccccc32)cc1 (stereo not drawn) [Example 314] | 14.4 |
| N#CNS(=O)(=O)c1ccccc1-c1ccc(CN(C(=O)Cc2cccs2)C2CCCc3ccccc32)cc1 (stereo not drawn) [Example 315] | 23.5 |
| N#CNS(=O)(=O)c1ccccc1-c1ccc(CN(Cc2ccccc2F)C(=O)Cc2cccs2)cc1 [Example 316] | 14.4 |
| N#CNS(=O)(=O)c1ccccc1-c1ccc(CN(Cc2cccc(-c3ccccc3)c2)C(=O)Cc2cccs2)cc1 [Example 317] | 14.5 |
| N#CNS(=O)(=O)c1ccccc1-c1ccc(CN(CC2CCCO2)C(=O)Cc2cccs2)cc1 (stereo not drawn) [Example 318] | 16.4 |
| COCCC(=O)N(Cc1ccc(-c2ccccc2S(=O)(=O)NC#N)cc1)Cc1cccc(Cl)c1Cl [Example 319] | 38.0 |
| COCCC(=O)N(Cc1ccc(-c2ccccc2S(=O)(=O)NC#N)cc1)Cc1ccc2ccccc2c1 [Example 320] | 38.8 |
| COCCC(=O)N(Cc1ccc(-c2ccccc2S(=O)(=O)NC#N)cc1)Cc1ccccc1C [Example 322] | 66.3 |
| COCCC(=O)N(CC=C(C)CCC=C(C)C)Cc1ccc(-c2ccccc2S(=O)(=O)NC#N)cc1 [Example 323] | 23.6 |
| COCCC(=O)N(Cc1ccc(-c2ccccc2S(=O)(=O)NC#N)cc1)C1CCc2ccccc21 (stereo not drawn) [Example 324] | 60.5 |

| Structure (SMILES) | Residual activity % of the NCBE at 10 μM [%] |
| --- | --- |
| COCCC(=O)N(Cc1ccc(-c2ccccc2S(=O)(=O)NC#N)cc1)C1CCCc2ccccc21 (stereo not drawn) [Example 325] | 33.8 |
| COCCC(=O)N(Cc1ccc(-c2ccccc2S(=O)(=O)NC#N)cc1)Cc1ccccc1F [Example 326] | 25.6 |
| COCCC(=O)N(Cc1ccc(-c2ccccc2S(=O)(=O)NC#N)cc1)Cc1cccc(-c2ccccc2)c1 [Example 327] | 17.4 |
| COCCC(=O)N(Cc1ccc(-c2ccccc2S(=O)(=O)NC#N)cc1)CC1CCCO1 (stereo not drawn) [Example 328] | 87.0 |
| COc1ccccc1C(=O)N(Cc1ccc(-c2ccccc2S(=O)(=O)NC#N)cc1)Cc1cccc(Cl)c1Cl [Example 329] | 25.7 |
| COc1ccccc1C(=O)N(Cc1ccc(-c2ccccc2S(=O)(=O)NC#N)cc1)Cc1ccc2ccccc2c1 [Example 330] | 14.4 |
| COc1ccccc1C(=O)N(Cc1ccc(-c2ccccc2S(=O)(=O)NC#N)cc1)Cc1cccc(C)c1 [Example 331] | 37.6 |
| COc1ccccc1C(=O)N(Cc1ccc(-c2ccccc2S(=O)(=O)NC#N)cc1)Cc1ccccc1C [Example 332] | 31.7 |
| COc1ccccc1C(=O)N(CC=C(C)CCC=C(C)C)Cc1ccc(-c2ccccc2S(=O)(=O)NC#N)cc1 [Example 333] | 22.3 |
| COc1ccccc1C(=O)N(Cc1ccc(-c2ccccc2S(=O)(=O)NC#N)cc1)C1CCCc2ccccc21 (stereo not drawn) [Example 335] | 79.6 |
| COc1ccccc1C(=O)N(Cc1ccc(-c2ccccc2S(=O)(=O)NC#N)cc1)Cc1ccccc1F [Example 336] | 58.1 |
| COc1ccccc1C(=O)N(Cc1ccc(-c2ccccc2S(=O)(=O)NC#N)cc1)Cc1cccc(-c2ccccc2)c1 [Example 337] | 51.2 |
| COc1ccccc1C(=O)N(Cc1ccc(-c2ccccc2S(=O)(=O)NC#N)cc1)CC1CCCO1 (stereo not drawn) [Example 338] | 50.7 |
| N#CNS(=O)(=O)c1ccccc1-c1ccc(CN(Cc2cccc(Cl)c2Cl)C(=O)CCOc2ccccc2)cc1 [Example 339] | 46.8 |
| N#CNS(=O)(=O)c1ccccc1-c1ccc(CN(Cc2ccc3ccccc3c2)C(=O)CCOc2ccccc2)cc1 [Example 340] | 37.2 |
| Cc1cccc(CN(Cc2ccc(-c3ccccc3S(=O)(=O)NC#N)cc2)C(=O)CCOc2ccccc2)c1 [Example 341] | 44.6 |
| Cc1ccccc1CN(Cc1ccc(-c2ccccc2S(=O)(=O)NC#N)cc1)C(=O)CCOc1ccccc1 [Example 342] | 85.3 |
| CC(C)=CCCC(C)=CCN(Cc1ccc(-c2ccccc2S(=O)(=O)NC#N)cc1)C(=O)CCOc1ccccc1 [Example 343] | 48.1 |
| N#CNS(=O)(=O)c1ccccc1-c1ccc(CN(C(=O)CCOc2ccccc2)C2CCc3ccccc32)cc1 (stereo not drawn) [Example 344] | 52.2 |
| N#CNS(=O)(=O)c1ccccc1-c1ccc(CN(C(=O)CCOc2ccccc2)C2CCCc3ccccc32)cc1 (stereo not drawn) [Example 345] | 39.8 |

| Structure (SMILES) | Residual activity % of the NCBE at 10 μM [%] |
| --- | --- |
| N#CNS(=O)(=O)c1ccccc1-c1ccc(CN(Cc2ccccc2F)C(=O)CCOc2ccccc2)cc1 [Example 346] | 36.0 |
| N#CNS(=O)(=O)c1ccccc1-c1ccc(CN(Cc2cccc(-c3ccccc3)c2)C(=O)CCOc2ccccc2)cc1 [Example 347] | 19.3 |
| N#CNS(=O)(=O)c1ccccc1-c1ccc(CN(CC2CCCO2)C(=O)CCOc2ccccc2)cc1 (stereo not drawn) [Example 348] | 46.3 |
| N#CNS(=O)(=O)c1ccccc1-c1ccc(CN(Cc2cccc(Cl)c2Cl)C(=O)CC2CCCCC2)cc1 [Example 349] | 50.4 |
| Cc1cccc(CN(Cc2ccc(-c3ccccc3S(=O)(=O)NC#N)cc2)C(=O)CC2CCCCC2)c1 [Example 351] | 27.2 |
| Cc1ccccc1CN(Cc1ccc(-c2ccccc2S(=O)(=O)NC#N)cc1)C(=O)CC1CCCCC1 [Example 352] | 35.2 |
| CC(C)=CCCC(C)=CCN(Cc1ccc(-c2ccccc2S(=O)(=O)NC#N)cc1)C(=O)CC1CCCCC1 [Example 353] | 47.9 |
| N#CNS(=O)(=O)c1ccccc1-c1ccc(CN(C(=O)CC2CCCCC2)C2CCc3ccccc32)cc1 (stereo not drawn) [Example 354] | 37.2 |
| N#CNS(=O)(=O)c1ccccc1-c1ccc(CN(C(=O)CC2CCCCC2)C2CCCc3ccccc32)cc1 (stereo not drawn) [Example 355] | 46.8 |
| N#CNS(=O)(=O)c1ccccc1-c1ccc(CN(Cc2ccccc2F)C(=O)CC2CCCCC2)cc1 [Example 356] | 47.4 |
| N#CNS(=O)(=O)c1ccccc1-c1ccc(CN(Cc2cccc(-c3ccccc3)c2)C(=O)CC2CCCCC2)cc1 [Example 357] | 61.9 |
| N#CNS(=O)(=O)c1ccccc1-c1ccc(CN(CC2CCCO2)C(=O)CC2CCCCC2)cc1 (stereo not drawn) [Example 358] | 55.5 |
| N#CNS(=O)(=O)c1ccccc1-c1ccc(CN(Cc2cccc(Cl)c2Cl)C(=O)CC2CCCC2)cc1 [Example 359] | 37.9 |
| N#CNS(=O)(=O)c1ccccc1-c1ccc(CN(Cc2ccc3ccccc3c2)C(=O)CC2CCCC2)cc1 [Example 360] | 36.9 |
| Cc1cccc(CN(Cc2ccc(-c3ccccc3S(=O)(=O)NC#N)cc2)C(=O)CC2CCCC2)c1 [Example 361] | 29.4 |
| Cc1ccccc1CN(Cc1ccc(-c2ccccc2S(=O)(=O)NC#N)cc1)C(=O)CC1CCCC1 [Example 362] | 44.1 |
| CC(C)=CCCC(C)=CCN(Cc1ccc(-c2ccccc2S(=O)(=O)NC#N)cc1)C(=O)CC1CCCC1 [Example 363] | 48.3 |
| N#CNS(=O)(=O)c1ccccc1-c1ccc(CN(C(=O)CC2CCCC2)C2CCc3ccccc32)cc1 (stereo not drawn) [Example 364] | 52.6 |
| N#CNS(=O)(=O)c1ccccc1-c1ccc(CN(C(=O)CC2CCCC2)C2CCCc3ccccc32)cc1 (stereo not drawn) [Example 365] | 45.1 |

Same assay, conditions: compound at 10 μM; R(3) to R(7) hydrogen series

| Structure (SMILES) | Residual activity % of the NCBE at 10 μM [%] |
| --- | --- |
| N#CNS(=O)(=O)c1ccccc1-c1ccc(CN(Cc2ccccc2F)C(=O)CC2CCCC2)cc1 [Example 366] | 38.4 |
| N#CNS(=O)(=O)c1ccccc1-c1ccc(CN(Cc2cccc(-c3ccccc3)c2)C(=O)CC2CCCC2)cc1 [Example 367] | 25.5 |
| N#CNS(=O)(=O)c1ccccc1-c1ccc(CN(CC2CCCO2)C(=O)CC2CCCC2)cc1 (stereo not drawn) [Example 368] | 51.0 |
| CC(C(=O)N(Cc1ccccc1)Cc1ccc(-c2ccccc2S(=O)(=O)NC#N)cc1)c1ccsc1 (stereo not drawn) [Example 388] | 63.7 |
